# Measurements taken from patent publication US20190127805A1, “GENE SIGNATURES FOR CANCER DETECTION AND TREATMENT” (ALMAC DIAGNOSTICS LIMITED, priority 2016, published 2019).
# Like-named read-outs stand apart in the source and are kept apart here.
# Columns and labels:
# [1] = tested on: OVCAR3 isogenic cell lines co-cultured with ECFCs; test: In-vivo Matrigel plug angiogenesis assay (micro-vessel density); design: species or system Athymic nude mice; conditions: 5 mg/kg IP; OVCAR3 cisplatin-resistant vs cisplatin-naïve cells, p-value 0.0024 (FIG. 44)
# Experimental: All animal experiments were performed in conformity to UK Home Office Regulations (PPL2729) and with authorization from Queen's University Belfast Animal Welfare and Ethical Review Body (AWERB). Eight week-old male Athymic nude mice (Harlan Laboratories) were used. ECFC were inoculated at a high density of 2.45×106 and co-cultured with GFP-labelled OVCAR3 WT or GFP-labelled OVCAR3-CP at a density of 1.4×106. The GFP-labelled OVCAR3 WT and GFP-labelled OVCAR3-CP were seeded alone at a density of 1.4×106. Each condition was diluted in 10 μL of phenol red-free DMEM and re-suspended in 90 μL of growth factor-reduced Matrigel (Corning) and injected subcutaneously. After 8 days, mice were sacrificed under isoflurane anaesthesia using 31 gauge needless intraperitoneal (IP) administration of sodium pentobarbital at 200 mg/kg, and implants were removed and fixed in 4% formaldehyde overnight. Fixed Matrigel implants were then embedded in paraffin and 10 μm sections were prepared for staining. For 5 mg/Kg bevacizumab was administered IP once weekly for 14 days. Treatment was commenced on day 3. Mice were sacrificed after a 14-day treatment period as previously described.
# IHC and immunofluorescence studies were conducted as previously describe. […] CD31 and αSMA stained vessels were then counted per high power field (200×) in three separate fields of three independent tumors from each group. […]
# [2] = tested on: ovarian cancer; conditions: cited from earlier work
# [3] = tested on: ovarian cancer; conditions: cited from earlier work; remark: listed apart in the source
# [4] = tested on: platinum sensitive recurrent ovarian cancer; conditions: cited from earlier work
# [5] = tested on: platinum resistant epithelial ovarian cancer; conditions: cited from earlier work
substance,measurement,setting,value
bevacizumab: recombinant humanised monoclonal antibody that binds to vascular endothelial growth factor A (VEGF-A),MVD (micro-vessel density),[1],less MVD
same,progression free survival (PFS),[2]; standard therapy plus bevacizumab (standard therapy alone 20.3 months),21.8 months
same,hazard ratio (HR) for PFS,"[2]; vs standard therapy, 95% CI 0.70 to 0.94, P=0.004",0.81
same,HR for PFS,"[3]; bevacizumab cycle 2-6, 95% CI 0.795 to 1.040, P=0.16",0.908
same,HR for PFS,"[3]; bevacizumab plus chemotherapy cycle 2-22, 95% CI 0.625 to 0.824, P<0.001",0.717
same,PFS,[3]; bevacizumab plus standard chemotherapy cycle 2-22 (control 10.3 months),14.1 months
same,PFS,[3]; bevacizumab with standard chemotherapy cycle 2-6 (control 10.3 months),11.2 months
same,Median progression free survival,[4]; bevacizumab + gemcitabine and carboplatin (placebo+GC 8.4 months),12.4 months
same,HR for progression free survival,"[4]; vs placebo+GC, 95% CI 0.388-0.605, p<0.0001",0.484
same,objective response rate (ORR),[5]; bevacizumab and chemotherapy,30.9%
same,overall survival,[5]; chemotherapy and bevacizumab arm (chemotherapy alone 13.3 months),16.6 months
same,PFS,[5]; patients treated with bevacizumab and paclitaxel,9.6 months
same,Progression free survival,[5]; single agent chemotherapy and bevacizumab (chemotherapy alone 3.4 months),6.7 months
same,hazard ratio for progression free survival,"[5]; vs chemotherapy alone, 95% CI 0.32-0.53, p<0.001",0.42
same,HR for overall survival,"[5]; vs chemotherapy alone, 95% CI 0.69-1.14, not statistically significant",0.89
